Tests used:
[1] = tested on: ds26 (DNA, duplex) CAATCGGATCGAATTCGATCCGATTG; experiment: fluorescence light-switch, plate reader; details: 5 mM KCl, 95 mM LiCl; 10 mM lithium cacodylate, pH 7.2, 25 °C; about 0.1 µM PtTMPyP4, DNA:porphyrin 50:1; intensity ratio, not affinity
[2] = tested on: 17A (DNA, single strand) CCAGTTCGTAGTAACCC; experiment: fluorescence light-switch, plate reader; details: 5 mM KCl, 95 mM LiCl; 10 mM lithium cacodylate, pH 7.2, 25 °C; about 0.1 µM PtTMPyP4, DNA:porphyrin 50:1; intensity ratio, not affinity
[3] = tested on: VEGF (DNA, G4) GGGAGGGTTGGGGTGGG; experiment: fluorescence light-switch, plate reader; details: 5 mM KCl, 95 mM LiCl; 10 mM lithium cacodylate, pH 7.2, 25 °C; about 0.1 µM PtTMPyP4, DNA:porphyrin 50:1; intensity ratio, not affinity
[4] = tested on: TBA (DNA, G4) GGTTGGTGTGGTTGG; experiment: fluorescence light-switch, plate reader; details: 10 mM lithium cacodylate, pH 7.2, 25 °C, about 0.1 µM PtTMPyP4, DNA:porphyrin 50:1, intensity ratio, not affinity
[5] = tested on: Tel22 (DNA, G4) AGGGTTAGGGTTAGGGTTAGGG; experiment: fluorescence titration, direct fit; details: 5 mM KCl, 95 mM LiCl; 10 mM lithium cacodylate, pH 7.2, 20 °C; 1.7-2.0 µM PtTMPyP4; equivalent sites
[6] = tested on: cKit1 (DNA, G4) GGGAGGGCGCTGGGAGGAGGG; experiment: fluorescence light-switch, plate reader; details: 5 mM KCl, 95 mM LiCl; 10 mM lithium cacodylate, pH 7.2, 25 °C; about 0.1 µM PtTMPyP4, DNA:porphyrin 50:1; intensity ratio, not affinity
[7] = tested on: cMyc (DNA, G4) TGAGGGTGGGTAGGGTGGGTAA; experiment: fluorescence light-switch, plate reader; details: 5 mM KCl, 95 mM LiCl; 10 mM lithium cacodylate, pH 7.2, 25 °C; about 0.1 µM PtTMPyP4, DNA:porphyrin 50:1; intensity ratio, not affinity
[8] = tested on: G4T4G4 (DNA, G4) GGGGTTTTGGGG; experiment: fluorescence light-switch, plate reader; details: 10 mM lithium cacodylate, pH 7.2, 25 °C, about 0.1 µM PtTMPyP4, DNA:porphyrin 50:1, intensity ratio, not affinity
[9] = tested on: Bcl-2 (DNA, G4) GGGCGCGGGAGGGAATTGGGCGGG; experiment: fluorescence light-switch, plate reader; details: 5 mM KCl, 95 mM LiCl; 10 mM lithium cacodylate, pH 7.2, 25 °C; about 0.1 µM PtTMPyP4, DNA:porphyrin 50:1; intensity ratio, not affinity
[10] = tested on: 26TelG4 (DNA, G4) AGGGGTTAGGGGTTAGGGGTTAGGGG; experiment: fluorescence light-switch, plate reader; details: 10 mM lithium cacodylate, pH 7.2, 25 °C, about 0.1 µM PtTMPyP4, DNA:porphyrin 50:1, intensity ratio, not affinity
[11] = tested on: F21D (DNA, G4) GGGTTAGGGTTAGGGTTAGGG; experiment: FRET melting; details: 5 mM KCl, 95 mM LiCl; 10 mM lithium cacodylate, pH 7.2; 0.4 µM ligand, 0.2 µM F21D
[12] = tested on: 17AB (DNA, duplex) CCAGTTCGTAGTAACCC/GGGTTACTACGAACTGG; experiment: fluorescence light-switch, plate reader; details: 5 mM KCl, 95 mM LiCl; 10 mM lithium cacodylate, pH 7.2, 25 °C; about 0.1 µM PtTMPyP4, DNA:porphyrin 50:1; intensity ratio, not affinity
[13] = tested on: 17B (DNA, single strand) GGGTTACTACGAACTGG; experiment: fluorescence light-switch, plate reader; details: 5 mM KCl, 95 mM LiCl; 10 mM lithium cacodylate, pH 7.2, 25 °C; about 0.1 µM PtTMPyP4, DNA:porphyrin 50:1; intensity ratio, not affinity
[14] = tested on: Tel22 (DNA, G4) AGGGTTAGGGTTAGGGTTAGGG; experiment: fluorescence light-switch, plate reader; details: 10 mM lithium cacodylate, pH 7.2, 25 °C, about 0.1 µM PtTMPyP4, DNA:porphyrin 50:1, intensity ratio, not affinity
[15] = tested on: Tel22 (DNA, G4) AGGGTTAGGGTTAGGGTTAGGG; experiment: UV-Vis titration, direct fit; details: 5 mM KCl, 95 mM LiCl, 10 mM lithium cacodylate, stoichiometry fixed, equivalent sites
[16] = tested on: G4TERT (DNA, G4) AGGGGAGGGGCTGGGAGGGC; experiment: fluorescence light-switch, plate reader; details: 5 mM KCl, 95 mM LiCl; 10 mM lithium cacodylate, pH 7.2, 25 °C; about 0.1 µM PtTMPyP4, DNA:porphyrin 50:1; intensity ratio, not affinity

With `C[n+]1ccc(-c2c3nc(c(-c4cc[n+](C)cc4)c4ccc([n-]4)c(-c4cc[n+](C)cc4)c4nc(c(-c5cc[n+](C)cc5)c5ccc2[n-]5)C=C4)C=C3)cc1.[Pt+2]` the Fluorescence enhancement [1] was 39.1 ± 5.2, the Fluorescence enhancement [2] was 38.1 ± 1.5 and the Fluorescence enhancement [3] was 76.9 ± 3.8. For the same compound, the Fluorescence enhancement ([4]; 5 mM KCl, 95 mM LiCl) was 29.5 ± 5.4, the Fluorescence enhancement ([4]; 50 mM NaCl, 50 mM LiCl) was 32.6 ± 6.8 and the binding constant [5] was “(1.8 ± 0.3) × 10^6 M^-1”. The Fluorescence enhancement [6] was 28.0 ± 5.6, the Fluorescence enhancement [7] was 28.0 ± 5.0 and the Fluorescence enhancement ([8]; 5 mM KCl, 95 mM LiCl) was 42.2 ± 9.2. The Fluorescence enhancement ([8]; 50 mM NaCl, 50 mM LiCl) was 40.5 ± 12, the Fluorescence enhancement [9] was 39.2 ± 5.7 and the Fluorescence enhancement ([10]; 5 mM KCl, 95 mM LiCl) was 65.4 ± 4.8. The Fluorescence enhancement ([10]; 50 mM NaCl, 50 mM LiCl) was 54.1 ± 15, the ΔTm [11] was 30.7 ± 0.6 °C and the Fluorescence enhancement [12] was 46.0 ± 0.7. It also gave a Fluorescence enhancement [13] of 43.9 ± 3.0, a Fluorescence enhancement ([14]; 5 mM KCl, 95 mM LiCl) of 71.8 ± 10 and a Fluorescence enhancement ([14]; 50 mM NaCl, 50 mM LiCl) of 54.2 ± 14.6. The binding affinity ([15]; pH 7.2, 20 °C) was “(5.8 ± 0.8) × 10^6 M^-1” and the Fluorescence enhancement [16] was 85.7 ± 0.9.

With `C[n+]1ccc(-c2c3nc(c(-c4cc[n+](C)cc4)c4ccc([n-]4)c(-c4cc[n+](C)cc4)c4nc(c(-c5cc[n+](C)cc5)c5ccc2[n-]5)C=C4)C=C3)cc1.[Pd+2]` the ΔTm [11] was 30.9 ± 0.4 °C and the binding affinity ([15]; pH 7.2) was “(1.0 ± 0.3) × 10^7 M^-1”.

— PMC4801998 (2016)
